Measured values taken from patent US10214681B2, “Method for treating a subterranean formation” (Schlumberger Technology Corporation, priority 2015, dated 2019).

Assays:
Format in all cases: biochemical
[1] = tested on: cellulase; assay: Viscosity of guar fluid with cellulase and deactivator at 22° C. (Examples 3-7); settings: 200 ppm cellulase; for degradation of the guar: 22° C. (FIG. 4)
Method: (§1) The following example formulations were prepared by adding a desired amount of cellulase and then a deactivator to water. The polymer was hydrated in the mixed water with a Waring blender mixing at 1000-3000 rpm for 15 mins.
The viscosities of Formulations 1-6 were measured immediately after mixing. To measure the viscosity of the solutions, 12 mL samples were loaded into a rheometer cup in a Bohlin rheometer with a C25 configuration.
The viscosities of Formulations 1-4 were measured immediately after mixing. To measure the viscosity of the solutions, 12 mL samples were loaded into a rheometer cup in a Bohlin rheometer with a C25 configuration.
The viscosities of Formulations 1-5 were measured immediately after mixing. To measure the viscosity of the solutions, 12 mL samples were loaded into a rheometer cup in a Bohlin rheometer with a C25 configuration.

[2] = tested on: cellulase; assay: Viscosity of guar solution with cellulase and deactivator over time at 50° C. and 80° C. (Example 1); settings: 200 ppm cellulase, 3.6 g/L guar
Method: as §1
Formulation 3 was prepared by adding 200 ppm cellulase and 0.6 g/L of 1,5-dihydroxynaphthalene from Sigma Aldrich to tap water. Then 3.6 g/L guar was added to the fluid.
Formulation 4 was prepared by adding 200 ppm cellulase and 0.24 g/L of 1,5-dihydroxynaphthalene from Sigma Aldrich to tap water. Then 3.6 g/L guar was added to the fluid.
To measure the viscosity of the solutions, 12 mL samples were loaded into a rheometer cup in a Bohlin rheometer with a C25 configuration. The rheology tests were performed at a shear rate of 10 s^−1 and temperatures of 50° C. and 80° C., the results of which are shown in FIG. 1 and FIG. 2, respectively.

[3] = tested on: cellulase; assay: Viscosity of xanthan fluid with cellulase and deactivator at 22° C. (Example 8); settings: 0.6 g/L deactivator, 200 ppm cellulase, 3.6 g/L xanthan
Method: as §1
Formulation 3 was prepared by adding 200 ppm cellulase, 0.6 g/L of 1,5-dihydroxynaphthalene, and 3.6 g/L xanthan to tap water.
(§2) The viscosities of Formulations 1-3 were measured immediately after mixing. To measure the viscosity of the solutions, 12 mL samples were loaded into a rheometer cup in a Bohlin rheometer with a C25 configuration.

[4] = tested on: cellulase; assay: Viscosity of carboxymethyl cellulose fluid with cellulase and deactivator at 22° C. (Example 9); settings: 0.6 g/L deactivator, 200 ppm cellulase, 3.6 g/L carboxymethyl cellulose
Method: as §1
Formulation 3 was prepared by adding 200 ppm cellulase, 0.6 g/L of 1,5-dihydroxynaphthalene, and 3.6 g/L carboxymethyl cellulose to tap water.
as §2

[5] = tested on: bacterial and/or fungal cells; assay: Viscosity of guar in water containing 11,000,000 CFU bacterial and/or fungal cells (Example 2); settings: 0.4 g/L deactivator, 3.6 g/L guar
Method: Formulation 2 was prepared by adding 3.6 g/L guar to water containing 11,000,000 CFU bacterial and/or fungal cells.
Formulation 3 was prepared by adding 0.4 g/L of tannic acid to Formulation 2.
as §2

## COc1cccc(OC)c1OC [1,2,3-trimethoxybenzene]
[1]; 0.6 g/L 1,2,3-trimethoxybenzene, 3.6 g/L guar, 22° C. (FIG. 8)
  degradation of the biomaterial: impeded
[1]; 0.6 g/L 1,2,3-trimethoxybenzene, 3.6 g/L guar, shear rate 1, 10, 100 s^-1, 22° C. (FIG. 8)
  viscosity compared with Formulation 1 (no cellulase): similar

## Oc1cccc2c(O)cccc12 [1,5-dihydroxynaphthalene]
[2]; 0.6 g/L deactivator, tap water, shear rate 10 s^-1, 50° C. and 80° C. (FIG. 1, 2)
  degradation rate of the cellulase enzymes: reduced
[2]; 0.6 g/L vs 0.24 g/L deactivator, 50° C. (FIG. 1)
  dependence of viscosity reduction on deactivator concentration: the slower the viscosity was reduced
[2]; 50° C., shear rate 10 s^-1 (FIG. 1)
  viscosity compared with the formulation without deactivator: higher
[2]; 80° C., shear rate 10 s^-1 (FIG. 2)
  viscosity compared with the formulation without deactivator: higher
[1]; 0.6 g/L deactivator, 3.6 g/L guar, 22° C. (FIG. 6)
  degradation of the biomaterial: impeded
[1]; 0.6 g/L deactivator, 3.6 g/L guar, shear rate 1, 10, 100 s^-1, 22° C. (FIG. 6)
  viscosity compared with Formulation 1 (no cellulase): similar
[3]; 22° C. (FIG. 9)
  degradation of the biomaterial: impeded
[3]; shear rate 1, 10, 100 s^-1, 22° C. (FIG. 9)
  viscosity compared with Formulation 1 (no cellulase): similar
[4]; 22° C. (FIG. 10)
  degradation of the biomaterial: impeded
[4]; shear rate 1, 10, 100 s^-1, 22° C. (FIG. 10)
  viscosity compared with Formulation 1 (no cellulase): similar

## Oc1ccc2c(c1)OCO2 [sesamol]
[1]; 0.36 g/L deactivator, 3.6 g/L guar, 22° C. (FIG. 7)
  degradation of the biomaterial: impeded
[1]; 0.36 g/L deactivator, 3.6 g/L guar, shear rate 1, 10, 100 s^-1, 22° C. (FIG. 7)
  viscosity compared with Formulation 1 (no cellulase): similar

## O=C(O)c1ccccc1O [salicylic acid]
[1]; 8 mL/L salicylic acid, 3.6 g/L guar
  degradation of the guar: impeded
[1]; 8 mL/L salicylic acid, 3.6 g/L guar, shear rate 1, 10, 100 s^-1, 22° C. (FIG. 4)
  viscosity compared with Formulation 1 (no cellulase): similar

## COc1ccccc1O [guaiacol]
[1]; 8 mL/L deactivator, 6 g/L guar
  degradation of the guar: impeded
[1]; 8 mL/L deactivator, 6 g/L guar, shear rate 1, 10, 100 s^-1, 22° C. (FIG. 4)
  viscosity compared with Formulation 1 (no cellulase): similar

## Oc1cccc2cccc(O)c12 [1,8-dihydroxynaphthalene]
[1]; 0.12 g/L deactivator, 3.6 g/L guar, 22° C. (FIG. 6)
  degradation of the biomaterial: impeded
[1]; 0.12 g/L deactivator, 3.6 g/L guar, shear rate 1, 10, 100 s^-1, 22° C. (FIG. 6)
  viscosity compared with Formulation 1 (no cellulase): similar

## COc1cc(C(=O)O)ccc1O [vanillic acid]
[1]; 0.96 g/L deactivator, 3.6 g/L guar
  degradation of the guar: impeded
[1]; 0.96 g/L deactivator, 3.6 g/L guar, shear rate 1, 10, 100 s^-1, 22° C. (FIG. 4)
  viscosity compared with Formulation 1 (no cellulase): similar

## Nc1cccc2c(O)cccc12 [5-amino-1-naphthol]
[1]; 0.96 g/L deactivator, 3.6 g/L guar, 22° C. (FIG. 7)
  degradation of the biomaterial: impeded
[1]; 0.96 g/L deactivator, 3.6 g/L guar, shear rate 1, 10, 100 s^-1, 22° C. (FIG. 7)
  viscosity compared with Formulation 1 (no cellulase): similar

## O=C(OC[C@H]1O[C@@H](OC(=O)c2cc(O)c(O)c(OC(=O)c3cc(O)c(O)c(O)c3)c2)[C@H](OC(=O)c2cc(O)c(O)c(OC(=O)c3cc(O)c(O)c(O)c3)c2)[C@@H](OC(=O)c2cc(O)c(O)c(OC(=O)c3cc(O)c(O)c(O)c3)c2)[C@@H]1OC(=O)c1cc(O)c(O)c(OC(=O)c2cc(O)c(O)c(O)c2)c1)c1cc(O)c(O)c(OC(=O)c2cc(O)c(O)c(O)c2)c1 [tannic acid]
[5]; water with 11,000,000 CFU bacterial and/or fungal cells, 22° C. (FIG. 3)
  degradation of the guar biomaterial by the enzyme: inhibited
[5]; water with 11,000,000 CFU cells, shear rate 1, 10, 100 s^-1, 22° C. (FIG. 3)
  viscosity compared with Formulation 1 (guar in tap water): similar
[1]; 0.4 g/L deactivator, 3.6 g/L guar, 22° C. (FIG. 5)
  degradation of the biomaterial by the cellulase enzymes: impeded
[1]; 0.4 g/L deactivator, 3.6 g/L guar, shear rate 1, 10, 100 s^-1, 22° C. (FIG. 5)
  viscosity compared with Formulation 1 (no cellulase): similar

## O=C(O)c1cc(O)c(O)c(O)c1 [gallic acid]
[1]; 8 mL/L gallic acid, 3.6 g/L guar
  degradation of the guar: impeded
[1]; 8 mL/L gallic acid, 3.6 g/L guar, shear rate 1, 10, 100 s^-1, 22° C. (FIG. 4)
  viscosity compared with Formulation 1 (no cellulase): similar

## COc1cc(OC)cc(OC)c1 [1,3,5-trimethoxybenzene]
[1]; 0.6 g/L 1,3,5-trimethoxybenzene, 3.6 g/L guar, 22° C. (FIG. 8)
  degradation of the biomaterial: impeded
[1]; 0.6 g/L 1,3,5-trimethoxybenzene, 3.6 g/L guar, shear rate 1, 10, 100 s^-1, 22° C. (FIG. 8)
  viscosity compared with Formulation 1 (no cellulase): similar

## Oc1cc2ccccc2cc1O [2,3-dihydroxynaphthalene]
[1]; 0.36 g/L deactivator, 3.6 g/L guar, 22° C. (FIG. 6)
  degradation of the biomaterial: impeded
[1]; 0.36 g/L deactivator, 3.6 g/L guar, shear rate 1, 10, 100 s^-1, 22° C. (FIG. 6)
  viscosity compared with Formulation 1 (no cellulase): similar
